In the test the target is T1, cereblon (NanoLuc-CRBN) (Homo sapiens, UniProt Q96SW2).
T1 construct: host or cells: HEK293T
Nature of the test: NanoBRET CRBN Cellular Target Engagement Assay. The test is classed as binding. The note with it: compound tested at 10 μM, HEK293T cells transfected with NanoLuc-CRBN, 2 hr incubation; for remaining activity at 10 µM: lower = higher affinity, read-out: % tracer bound At the end of assay; for inhibition at 10 µM: read-out: % tracer removed From CBLN. An excerpt:
The following example measures the extent to which a test compound of this invention binds to cereblon. In this example, a commercially available cereblon binding test kit (Promega Corporation, Madison, Wis., USA) was used but adapted to a 384 well format.
The kit comprises a tracer that binds to cereblon to form a tracer-cereblon complex. This complex is reversible. Upon addition of the test compound, competition between the tracer and the test compound for the binding site(s) on cereblon occurs. The extent of tracer release from cereblon correlates to the affinity of test compound to bind to cereblon. The higher the affinity, the more tracer is released from cereblon.
The assay is a homogenous cell-based assay that used bioluminescence resonance energy transfer (BRET) to measure cereblon target compound binding which causes loss of BRET. Lower BRET values correlate to higher loss of tracer bound to cereblon and, accordingly, higher the levels of target compound binding to cereblon.
The specifics of the assay include HEK293T cells were transfected with a NanoLuc-CRBN expression plasmid using Fugene as described. Approximately 24 hr later, transfected cells were washed with 1× Phosphate Buffered Saline (PBS) and harvested using trypsin. Cells were resuspended in Opti-MEM (available from Thermo Fisher Scientific) at a concentration of 2×10^5 cells/mL. A ratio of 1 part 100× Tracer to 4 parts NanoBRET Tracer Dilution Buffer was used to make a 20× Tracer stock. Next, 40 μl cells per well containing 1× tracer was dispensed into 384 well white tissue culture treated plates. Compounds were then dispensed using a D330e Digital Dispenser (Tecan Trading AG) and plates were allowed to incubate for 2 hr at 37° C., 5% CO2. Immediately prior to BRET measurements, a 3× Complete NanoBret Nano-Glo Substrate stock in Opti-MEM was prepared and 20 μl per well of substrate was subsequently added to the assay plates. Following a 2-3 minute incubation at room temperature, donor (450 nm) and acceptor (610 nm) emission values were read on a CLARIOStar multimode plate reader (BMG) in luminescence mode. Data were converted to milliBRET units by dividing acceptor emission values by donor emission and multiplying by 1000. […]
(In general: In BRET a luciferase serves as donor, and the signal depends on an acceptor being close.)

T1 sequence (Q96SW2 whole entry): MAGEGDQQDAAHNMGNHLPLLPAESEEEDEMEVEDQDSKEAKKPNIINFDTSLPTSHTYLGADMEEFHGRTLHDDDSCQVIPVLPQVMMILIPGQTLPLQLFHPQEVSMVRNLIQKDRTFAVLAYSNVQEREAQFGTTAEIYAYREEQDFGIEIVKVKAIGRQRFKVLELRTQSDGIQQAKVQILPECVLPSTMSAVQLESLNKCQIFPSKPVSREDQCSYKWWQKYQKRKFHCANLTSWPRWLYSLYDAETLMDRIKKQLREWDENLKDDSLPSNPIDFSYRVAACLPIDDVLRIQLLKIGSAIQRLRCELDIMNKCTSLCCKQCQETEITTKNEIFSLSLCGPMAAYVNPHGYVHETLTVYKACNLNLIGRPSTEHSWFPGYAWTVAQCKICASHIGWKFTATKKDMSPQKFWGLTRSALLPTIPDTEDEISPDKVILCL

As for `COc1ccccc1CNc1cccc2nc(C)n(C3CCC(=O)NC3=O)c(=O)c12` (stereo not shown) [Example 2, 3-(5-((2-methoxybenzyl)amino)-2-methyl-4-oxoquinazolin-3(4H)-yl)piperidine-2,6-dione], the remaining activity at 10 µM amounted to 47.4% and the inhibition at 10 µM was 52.6%.

For the molecule `COc1cccc(CNc2cccc3nc(C)n(C4CCC(=O)NC4=O)c(=O)c23)c1` (stereo not shown) [Example 3, 3-(5-((3-methoxybenzyl)amino)-2-methyl-4-oxoquinazolin-3(4H)-yl)piperidine-2,6-dione], the remaining activity at 10 µM came to 27.3% and the inhibition at 10 µM is 72.7%.

Take `Cc1nc2cccc(NCc3ccccc3F)c2c(=O)n1C1CCC(=O)NC1=O` (stereo not shown) [Example 6, 3-(5-((2-fluorobenzyl)amino)-2-methyl-4-oxoquinazolin-3(4H)-yl)piperidine-2,6-dione]: the remaining activity at 10 µM came out at 26.6% and the inhibition at 10 µM turned out to be 73.4%.

`Cc1ccc(CNc2cccc3nc(C)n(C4CCC(=O)NC4=O)c(=O)c23)cc1` (stereo not shown) [Example 8, 3-(2-methyl-5-((4-methylbenzyl)amino)-4-oxoquinazolin-3(4H)-yl)piperidine-2,6-dione]: the remaining activity at 10 µM was 47.7% and the inhibition at 10 µM is 52.3%.

Turning to `Cc1nc2cccc(NCc3ccccc3Cl)c2c(=O)n1C1CCC(=O)NC1=O` (stereo not shown) [Example 9, 3-(5-((2-chlorobenzyl)-amino)-2-methyl-4-oxoquinazolin-3(4H)-yl)piperidine-2,6-dione], the remaining activity at 10 µM was determined as 30.2% and the inhibition at 10 µM was 69.8%.

In the case of `Cc1nc2cccc(NCc3cccc(Cl)c3)c2c(=O)n1C1CCC(=O)NC1=O` (stereo not shown) [Example 10, 3-(5-((3-chlorobenzyl)-amino)-2-methyl-4-oxoquinazolin-3(4H)-yl)piperidine-2,6-dione], the remaining activity at 10 µM worked out at 20.2% and the inhibition at 10 µM amounted to 79.8%.

With `Cc1ccccc1CNc1cccc2nc(C)n(C3CCC(=O)NC3=O)c(=O)c12` (stereo not shown) [Example 11, 3-(5-((2-methylbenzyl)-amino)-2-methyl-4-oxoquinazolin-3(4H)-yl)piperidine-2,6-dione], the remaining activity at 10 µM amounted to 30.2% and the inhibition at 10 µM came out at 69.8%.

With `COc1ccc(CNc2cccc3nc(C)n(C4CCC(=O)NC4=O)c(=O)c23)cc1OC` (stereo not shown) [Example 12, 3-(5-((3,4-dimethoxy-benzyl)-amino)-2-methyl-4-oxoquinazolin-3(4H)-yl)piperidine-2,6-dione], the remaining activity at 10 µM was 0% and the inhibition at 10 µM worked out at 100%.

Consider `Cc1nc2cccc(NCc3ccccc3C#N)c2c(=O)n1C1CCC(=O)NC1=O` (stereo not shown) [Example 13, 3-(5-((2-cyanobenzyl)-amino)-2-methyl-4-oxoquinazolin-3(4H)-yl)piperidine-2,6-dione], for which the remaining activity at 10 µM turned out to be 16% and the inhibition at 10 µM is 84%.

For `Cc1nc2cccc(NCc3ccc(C#N)cc3)c2c(=O)n1C1CCC(=O)NC1=O` (stereo not shown) [Example 14, 3-(5-((4-cyanobenzyl)-amino)-2-methyl-4-oxoquinazolin-3(4H)-yl)piperidine-2,6-dione], the remaining activity at 10 µM is 11.5% and the inhibition at 10 µM turned out to be 88.5%.

With `Cc1nc2cccc(NCc3ccc(C(F)(F)F)cc3)c2c(=O)n1C1CCC(=O)NC1=O` (stereo not shown) [Example 15, 3-(5-((4-trifluoromethyl-benzyl)-amino)-2-methyl-4-oxoquinazolin-3(4H)-yl)piperidine-2,6-dione], the remaining activity at 10 µM is 23.9% and the inhibition at 10 µM amounted to 76.1%.

On to `COc1cc(CNc2cccc3nc(C)n(C4CCC(=O)NC4=O)c(=O)c23)cc(OC)c1` (stereo not shown) [Example 16, 3-(5-((3,5-dimethoxy-benzyl)-amino)-2-methyl-4-oxoquinazolin-3(4H)-yl)piperidine-2,6-dione], for which the remaining activity at 10 µM worked out at 20.9% and the inhibition at 10 µM came to 79.1%.

With `COc1ccc(CNc2cccc3nc(C)n(C4CCC(=O)NC4=O)c(=O)c23)c(OC)c1` (stereo not shown) [Example 17, 3-(5-((2,4-dimethoxy-benzyl)-amino)-2-methyl-4-oxoquinazolin-3(4H)-yl)piperidine-2,6-dione], the remaining activity at 10 µM amounted to 34.8% and the inhibition at 10 µM was determined as 65.2%.

Turning to `Cc1nc2cccc(NCc3c(Cl)cccc3Cl)c2c(=O)n1C1CCC(=O)NC1=O` (stereo not shown) [Example 18, 3-(5-((2,6-dichlorobenzyl)-amino)-2-methyl-4-oxoquinazolin-3(4H)-yl)piperidine-2,6-dione], the remaining activity at 10 µM came to 21.3% and the inhibition at 10 µM worked out at 78.7%.

Consider `COc1ccc(OC)c(CNc2cccc3nnn(C4CCC(=O)NC4=O)c(=O)c23)c1` (stereo not shown) [Example 19, 3-(5-((2,5-dimethoxybenzyl)amino)-4-oxobenzo[d][1,2,3]triazin-3(4H)-yl)piperidine-2,6-dione], for which the remaining activity at 10 µM amounted to 29.7% and the inhibition at 10 µM stood at 71.3%.

For the molecule `Cc1nc2cccc(NCc3cc(Cl)ccc3Cl)c2c(=O)n1C1CCC(=O)NC1=O` (stereo not shown) [Example 20, 3-(5-((2,5-dichlorobenzyl)amino)-2-methyl-4-oxoquinazolin-3(4H)-yl)piperidine-2,6-dione], the remaining activity at 10 µM is 12.1% and the inhibition at 10 µM was determined as 87.9%.

Consider `Cc1nc2cccc(NCc3ccc(CO)cc3)c2c(=O)n1C1CCC(=O)NC1=O` (stereo not shown) [Example 21, 3-(5-((4-(hydroxymethyl)benzyl)amino)-2-methyl-4-oxoquinazolin-3(4H)-yl)piperidine-2,6-dione], for which the remaining activity at 10 µM amounted to 9.9% and the inhibition at 10 µM worked out at 90.1%.

(Values after patent US11807620B2, “Quinazolinone compounds and related compounds” (PLEXIUM, INC., priority 2020, dated 2023).)
